Measurements: patent US9662347B2, “Method for inhibiting the induction of cell death by inhibiting the synthesis or secretion of age-albumin in cells of the mononuclear phagocyte system” (Gachon University of Industry-Academic Cooperation …, priority 2010, dated 2017)

How the values were obtained:
[1] = system: α-synuclein, TNF-α and AGE-albumin in human microglial cells; type: cell-based; settings: for expression level of α-synuclein or TNF-α in human microglial cells: PCR and immunoblotting; for expression level of AGE-albumin: irrespective of rotenone treatment
Method: Human microglial cells were cultured at 37° C. in DMEM (Gibco, 10% FBS (Gibco), 0.1% gentamicin (Gibco), a high concentration of glucose) at 37° C. in a 5% CO2 incubator. Then, the microglial cells were exposed to rotenone (Sigma, 1 nM), a causative agent of Parkinson's disease, for 10 days or to 6-hydroxydopamine (6-OHDA) for 24 hrs to prepare a cell model of Parkinson's disease.
α-Synuclein or TNF-α is present at a high level in the brain tissue of Parkinson's disease patients.

[2] = system: rotenone-mediated neuronal cell death; assay: Rotenone mouse model, number of neuronal cells in brain tissues (cresyl violet staining); type: in vivo; settings: rotenone mice; for level of cell death in mouse brain tissues: substance injected into brain, one week and one month, compared to PBS
Method: CBL57/bL6 mice, each weighing 20-25 g, were used as experimental animals. The mice were maintained on a 12-h light-dark cycle, allowed to have access to food and water ad libitum, and acclimated for at least 1 week prior to usage. All animal experiments were approved by the Institute Animal Care and Use Committee, and were conducted humanely.
(§2) The animal models of Parkinson's disease were anaesthetized with ketamine (0.75 mg/kg body weight) and rompun (0.2 mg/kg body weight) prior to surgical procedures. For in vivo treatments, phosphate buffered saline (PBS) and sRAGE (10 ng/μL) were dissolved at a concentration of 1 mM in sterile water and kept at 4° C. until use. The head was fixed on a stereotaxic instrument before a midline incision of the scalp skin was made. The skull was pierced with a biological electric drill at the bregma (posteriorly, 0.3 mm; laterally, 2 mm) and the needle (gauge 26) on a 10-μL Hamilton syringe was lowered vertically until it reached the target area (depth, 2.5 mm). Three microliters of sRAGE were injected slowly at the rate of 1 μL per minute with an automatic microinjector. Thereafter, the syringe was removed slowly and surgical wounds were sutured with wound clips followed by topical treatment with antibiotics. For control, PBS was injected into the entorhinal cortex of normal mice.
Most mice were bred for one week and one month after injection of sRAGE. During the breeding, oral administration of rotenone still continued. Afterwards, all mice were re-anaesthetized in the same manner, and perfused transcardially with 100˜200 mL of heparinized saline at 18° C. followed by 400 mL of 4% paraformaldehyde-lysine periodate in 0.1 M sodium phosphate buffer (pH, 7.4). The brains were removed, placed in the same fixative for 4 hrs at 4° C., and then transferred into ice-cold 0.1 M phosphate-buffered saline (PBS) containing 20% sucrose. […]
The relative levels of neurons in mouse brain tissues were evaluated by cresyl violet staining after PBS, rotenone, or rotenone/sRAGE administration for one week and one month before microscopy.

[3] = system: AGE-albumin, RAGE, and Bax in mouse brain tissues; assay: Rotenone mouse model, fluoroimmunostaining of AGE-albumin, RAGE and Bax in brain tissues; type: in vivo; settings: versus rotenone alone; one week and one month
Method: as §2
Most mice were bred for one week and one month after injection of sRAGE. During the breeding, oral administration of rotenone still continued. Afterwards, all mice were re-anaesthetized in the same manner, and perfused transcardially with 100˜200 mL of heparinized saline at 18° C. followed by 400 mL of 4% paraformaldehyde-lysine periodate in 0.1 M sodium phosphate buffer (pH, 7.4). […]

[4] = system: AGE-albumin in human microglial cells (HMO6); assay: Synthesis and secretion of AGE-albumin in human microglial cells (co-immunoprecipitation, ELISA, immunoblot); type: cell-based; settings: for amount / expression level of AGE-albumin (immunoblot): 0˜1000 μM H2O2, ascorbic acid irrespective of Aβ1-42 treatment
Method: (§1) For in vitro studies, the immortalized human microglial cell line HMO6 was used. HMO6 cells were grown in Dulbecco's modified Eagle's medium (DMEM, Gibco) containing a high glucose concentration, supplemented with 10% heat-inactivated fetal bovine serum (FBS, Gibco) and […] gentamycin (Sigma-Aldrich). These cells were maintained at 37° C. under 5% CO2. HMO6 cells were exposed to Aβ1-42 (Sigma-Aldrich) at concentrations from 0 to 400 nM. HMO6 cells were then harvested 6 hrs after Aβ1-42 treatment for further analysis.
Whole human microglial cell lysates prepared before and after Aβ 1-42 treatment were subjected to immunoblotting analysis. In this regard, whole cell lysates from human microglial cells before and after treatment with 0˜400 nM Aβ 1-42 were prepared with a RIPA (radioimmunoprecipitation assay) buffer containing 1 M Tris (pH 7.5), 5 M NaCl, 10% NP-40, 10% deoxycholate and a protease inhibitor cocktail (Calbiochem). All cell lysates (1 mg protein) were incubated overnight at 4° C. with 5 mg of anti-AGE (Abcam)-conjugated sepharose beads in […] of PBS. The sepharose beads were precipitated by centrifugation at 14,000 rpm for 5 min, and washed three times with 1 mL of washing buffer containing 50 mM Tris-Cl and 500 mM NaCl (pH 8.0). The IgG-bound antigen-antibody complex was resolved on a 4-12% polyacrylamide gel (Invitrogen), followed by immunoblot analysis with the respective antibodies (1:1000, Abcam).
After removal of already synthesized albumin by use of an anti-albumin antibody, intracellular and extracellular (secreted into culture media) levels of AGE-albumin were measured using ELISA. For this, human microglial cells were treated with 0-400 nM Aβ1-42, after which the culture media (0.1 mg protein) were harvested. Separately, the cells were lyzed to prepare cell lysates (0.5 mg protein). […] Following the addition of HRP-conjugated anti-mouse secondary antibody (1:1000, Vector Laboratories) to each well, color was developed with TMB (3,3′,5,5′-tetramethylbenzidine), and reaction was stopped with an equal volume of 2 M H2SO4. Absorbance at 450 nm was read on an ELISA plate reader (VERSA Max, Molecular Devices).
Aβ1-42 is known to accumulate over a long period of time by oxidative stress.

[5] = system: AGE-albumin in human microglial cells; assay: AGE-albumin in human microglial cell model of stroke (oxygen and glucose deprivation); type: cell-based; settings: for amount / expression level of AGE-albumin in stroke model cells (immunoblot): 0˜1000 μM H2O2, ascorbic acid irrespective of hypoxia and glucose deprivation; for expression level of AGE-albumin in stroke model cells: 0, 50, 200, 500, 2000 ng/mL, hypoxic and glucose-deprived
Method: Human microglial cells were cultured at 37° C. in DMEM (Gibco, 10% FBS (Gibco), 0.1% gentamicin (Gibco), a high concentration of glucose) at 37° C. in a 5% CO2 incubator. Then, the microglial cells were exposed to glucose-free DMEM for 1 hr within a hypoxic (5% CO2 and 95% N2) chamber (Billups-Rothenberg, Del Mar, Calif.) to prepare a cell model of stroke.
Human microglial cell models of stroke were treated with HMGB1, which is known to secrete most abundantly upon stroke to excite microglial cells. Expression levels of AGE-albumin in the human microglial cell model of stroke were quantitated at various concentrations (0, 50, 200, 500, 2000 ng/mL) of HMGB1 using immunohistochemistry (IHC), ELISA, and immunoblotting.
A Human microglial cell model of stroke was exposed to various concentrations (0, 50, 200, 500, 2000 ng/mL) of the HMGB1 inhibitor glycyrrhizic acid, and quantitatively analyzed for AGE-albumin using ELISA and immunoblotting.

[6] = system: AGE-albumin in mouse blood monocytes; assay: AGE-albumin in mouse blood monocytes (immunostaining); type: cell-based; settings: compared to non-treated cells
[7] = system: AGE-albumin in human microglial cells and rat brain tissues; assay: Distribution and density of AGE-albumin after Aβ1-42 treatment (immunostaining, confocal microscopy); type: cell-based
Method: as §1
Cells were grown on Lab-Tek II slide chambers (Nunc), rinsed with PBS, fixed in methanol for 15 min, and rinsed again with PBS. […] After washing the secondary antibodies with PBS three times at regular intervals of 10 min, coverslips were mounted onto glass slides using the Vectashield mounting medium (Vector Laboratories), and examined under a laser confocal fluorescence microscope (LSM-710, Carl Zeiss).
Immunohistochemistry was conducted on murine brain tissues from normal or Alzheimer's disease rats, and human brain tissues from normal adults and Alzheimer's disease individuals [S. M. Ahn et al., PLoS ONE 3, e2829 (2008)]. […] After washing the secondary antibodies three times with PBS, coverslips were mounted onto glass slides using the Vectashield mounting medium (Vector Laboratories), and observed under a laser confocal fluorescence microscope (LSM-710, Carl Zeiss). […]

Molecule: NCCc1cc(O)c(O)cc1O [6-hydroxydopamine]
- expression level of α-synuclein or TNF-α in human microglial cells [1]: increased

Molecule: N[C@@H](C(=O)N[C@@H]1C(=O)N2C(C(=O)O)=C(Cl)CS[C@H]12)c1ccccc1 [C-20, Cefaclor]
- level of cell death in mouse brain tissues [2]: significantly reduced level of cell death
- number of neurons in the injected region versus the non-injected region ([2]; predominant recovery in the substantia nigra): higher number of neurons
- AGE, albumin, Iba1, AGE-albumin, RAGE, and Bax expression / positive cells in mouse brain tissues [3]: reduced

Molecule: CC(=O)OCC1=C(C(=O)O)N2C(=O)[C@@H](NC(=O)Cc3cccs3)[C@H]2SC1 [C-21, Cephalothin sodium]
- level of cell death in mouse brain tissues [2]: significantly reduced level of cell death
- AGE, albumin, Iba1, AGE-albumin, RAGE, and Bax expression / positive cells in mouse brain tissues [3]: reduced

Molecule: O=C1O[C@H]([C@@H](O)CO)C(O)=C1O [ascorbic acid]
- amount / expression level of AGE-albumin (immunoblot) [4]: drastically reduced
- amount / expression level of AGE-albumin in stroke model cells (immunoblot) [5]: drastically reduced
- expression level of AGE-albumin [1]: drastically reduced

Molecule: C=C1[C@@H](C)[C@H]2[C@H](Cc3ccccc3)NC(=O)[C@]23[C@H](OC(C)=O)/C=C/[C@@](C)(O)C(=O)[C@@H](C)C/C=C/[C@H]3[C@@H]1O [cytochalasin D]
- expression level of AGE-albumin [1]: drastically reduced

Molecule: CC1(C)[C@@H](O[C@H]2O[C@H](C(=O)O)[C@@H](O)[C@H](O)[C@H]2O[C@@H]2O[C@H](C(=O)O)[C@@H](O)[C@H](O)[C@H]2O)CC[C@]2(C)[C@H]3C(=O)C=C4[C@@H]5C[C@@](C)(C(=O)O)CC[C@]5(C)CC[C@@]4(C)[C@]3(C)CC[C@@H]12 [glycyrrhizic acid]
- expression level of AGE-albumin in stroke model cells [5]: significantly decreased with an increase in the concentration

Molecule: OO [hydrogen peroxide]
- amount / expression level of AGE-albumin (immunoblot) [4]: increased in a concentration-dependent manner
- amount / expression level of AGE-albumin in stroke model cells (immunoblot) [5]: increased in a concentration-dependent manner
- amounts of both α-synuclein and AGE-albumin ([1]; sequentially exposed to rotenone and H2O2 0˜1000 μM): increased in a concentration-dependent manner

Molecule: C=C(C)[C@H]1Cc2c(ccc3c2O[C@@H]2COc4cc(OC)c(OC)cc4[C@@H]2C3=O)O1 [rotenone]
- expression level of AGE-albumin in both cell lysate and cell culture medium ([1]; 1 nM rotenone): increased
- expression level of α-synuclein or TNF-α in human microglial cells [1]: increased

Molecule: Aβ1-42: amyloid beta 1-42 (Sigma-Aldrich), activator of microglial cells
- expression level of AGE-albumin in mouse blood monocytes [6]: higher expression level
- expression level of AGE-albumin in human microglial cells (co-immunoprecipitation) ([4]; 0˜400 nM Aβ1-42): increased with an increase in the concentration
- level of AGE-albumin in human microglial cell lysates (ELISA) ([4]; compared to non-treated lysates): significant increase
- expression level of AGE-albumin (immunostaining) ([7]; human microglial cells and rat brain tissue (cerebral cortex) after exposure to Aβ1-42): remarkable elevation
- densities of AGE-albumin ([7]; microglial cells and rat brain tissues after versus before Aβ1-42 treatment): remarkably higher

B1: HMGB1: high motility group protein B1, excites microglial cells upon stroke (protein, UniProt P09429 1-215, looked up)
High mobility group protein B1: MGKGDPKKPRGKMSSYAFFVQTCREEHKKKHPDASVNFSEFSKKCSERWKTMSAKEKGKFEDMAKADKARYEREMKTYIPPKGETKKKFKDPNAPKRPPSAFFLFCSEYRPKIKGEHPGLSIGDVAKKLGEMWNNTAADDKQPYEKKAAKLKEKYEKDIAAYRAKGKPDAAKKGVVKAEKSKKKKEEEEDEEDEEDEEEEEDEEDEDEEEDDDDE
- expression level of AGE-albumin in stroke model cells [5]: significantly increased with an increase in the concentration
